From publication PMC10020352 (Frontiers in Pharmacology, 2023) come the findings set out here.

In general, EC50 refers to the concentration at which the effect is half-maximal. Read a high EC50 as lower potency in that assay.

Where a SMILES comes first, the peptide text is derived from it. [ ]: non-standard residue; d: D form. Phe(4-NO2) = N[C@@H](Cc1ccc([N+](=O)[O-])cc1)C(=O)O; Phe(4-Cl) = N[C@@H](Cc1ccc(Cl)cc1)C(=O)O; Phe(4-F) = N[C@@H](Cc1ccc(F)cc1)C(=O)O; NMeR = CN[C@@H](CCCNC(=N)N)C(=O)O; Aoc = NCCCCCCCC(=O)O; Ahx = NCCCCCC(=O)O; Sar = CNCC(=O)O

The target in one data set is KOP receptor (Homo sapiens, UniProt P41145). Briefly: cell-based. The data set is classed as cell-based.
KOP receptor, sequence (P41145 whole entry): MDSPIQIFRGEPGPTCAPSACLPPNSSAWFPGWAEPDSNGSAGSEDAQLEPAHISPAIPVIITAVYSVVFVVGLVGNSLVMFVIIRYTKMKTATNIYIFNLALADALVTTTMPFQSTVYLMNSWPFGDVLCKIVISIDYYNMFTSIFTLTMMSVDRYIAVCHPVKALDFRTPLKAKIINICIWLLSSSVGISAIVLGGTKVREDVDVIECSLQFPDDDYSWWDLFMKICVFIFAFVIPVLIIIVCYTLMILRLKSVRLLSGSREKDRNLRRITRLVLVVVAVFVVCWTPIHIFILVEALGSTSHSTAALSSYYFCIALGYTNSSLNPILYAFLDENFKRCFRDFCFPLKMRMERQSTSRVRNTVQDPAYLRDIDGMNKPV
The target in the next data set is T1, DOP receptor (Homo sapiens, UniProt P41143).
T1 construct: expressed in transfected cells; host or cells: HEK293
T1 sequence (P41143 whole entry): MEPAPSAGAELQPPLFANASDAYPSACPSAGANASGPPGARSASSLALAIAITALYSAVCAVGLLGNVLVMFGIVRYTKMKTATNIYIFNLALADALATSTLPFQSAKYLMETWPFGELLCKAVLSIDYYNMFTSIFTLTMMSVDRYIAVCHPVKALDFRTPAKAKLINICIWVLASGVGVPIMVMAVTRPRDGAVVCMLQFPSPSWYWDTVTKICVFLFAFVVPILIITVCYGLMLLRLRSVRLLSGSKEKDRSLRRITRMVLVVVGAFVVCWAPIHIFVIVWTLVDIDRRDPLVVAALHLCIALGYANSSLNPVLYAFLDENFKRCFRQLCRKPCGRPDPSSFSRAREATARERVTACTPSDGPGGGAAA
The data set is described as follows: cell-based.

In another data set the target is T2, MOP receptor (Homo sapiens, UniProt P35372).
T2 construct: expressed in transfected cells; host or cells: HEK293
T2 sequence (P35372 whole entry): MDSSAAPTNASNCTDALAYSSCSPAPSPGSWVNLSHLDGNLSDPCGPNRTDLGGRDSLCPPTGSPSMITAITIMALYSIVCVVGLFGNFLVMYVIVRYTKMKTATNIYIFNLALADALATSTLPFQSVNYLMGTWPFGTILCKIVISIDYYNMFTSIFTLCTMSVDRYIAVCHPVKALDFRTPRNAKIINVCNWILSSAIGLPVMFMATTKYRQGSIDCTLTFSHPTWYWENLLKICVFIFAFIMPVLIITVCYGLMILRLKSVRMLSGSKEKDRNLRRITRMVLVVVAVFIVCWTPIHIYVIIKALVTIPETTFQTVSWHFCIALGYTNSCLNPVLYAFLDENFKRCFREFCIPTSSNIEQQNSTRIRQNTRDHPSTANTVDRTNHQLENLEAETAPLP
The data set is described as follows: cell-based.

Data set [1] deals with T3, bovine pancreatic trypsin (Bos taurus, UniProt P00760).
T3 sequence (P00760 24-246): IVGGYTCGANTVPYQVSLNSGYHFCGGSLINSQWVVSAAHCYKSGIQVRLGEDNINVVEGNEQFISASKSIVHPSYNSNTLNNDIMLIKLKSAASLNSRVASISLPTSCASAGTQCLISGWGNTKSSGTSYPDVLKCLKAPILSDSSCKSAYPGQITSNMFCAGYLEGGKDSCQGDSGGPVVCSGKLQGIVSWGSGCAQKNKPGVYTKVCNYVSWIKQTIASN
Briefly: Metabolic stability in trypsin. Format: in vitro ADME. The note with it: bovine pancreatic trypsin 2.5 μg/mL, pH 8-8.5, 37°C, peptide 100 μM; read-out: Stability (t1/2) Trypsin. The protocol:
(§1) Whole blood was collected in-house from adult mixed-gender Wistar rats (RRID: RGD_150520162), and plasma was prepared in 0.2% EDTA as per standard practice. Peptides (final 100 μM) were incubated with pooled rat plasma at 37°C. Samples were collected at different time intervals 0, 5, 10, 15, 30, 60, and 120 min. At each time point, collected samples were immediately added to three volumes of cold ACN. This mixture was vortexed for 30 s and then centrifuged at room temperature (13 K rpm, 5 min). The supernatant was taken and directly placed in glass HPLC vials for LCMS analysis. The protocol for the trypsin stability assay was as for the plasma stability assay except for the […] (bovine pancreatic trypsin 2.5 μg/mL in NH4HCO3 buffer, approx. pH 8–8.5, 37°C).
(§2) Relative concentrations of each peptide from stability assays in plasma or trypsin were analysed using an Agilent binary LC system consisting of an Agilent 1290 Infinity LC pump, Agilent 1,290 auto-sampler coupled with Triple Quad Mass-Spectrometer (MS, model 6460, Agilent Technologies). A bidentate C18 HPLC column (Cogent, 100 Å, […]) with a binary solvent gradient composed of Solvent: A 0.1%v/v formic acid in MQ water and Solvent B: 0.1% v/v formic acid in ACN was used for the separation. The MS parameters were optimised for all compounds to obtain the highest signal in positive Total Ion Current (TIC) mode. Data were analysed using a combination of Microsoft Excel and GraphPad Prism software packages. Data was normalised to time point zero (immediately after compound addition) and expressed in percentages from t = 0. Half-lives were calculated in GraphPad Prism software (v8.3).

Data set [2] can be described thus: Metabolic stability in rat plasma. The note with it: pooled rat plasma, 37°C, peptide 100 μM; for half-life: rat, plasma, read-out: Stability (t1/2) Plasma. The data set is classed as in vitro ADME. The protocol: as §1, §2

For `CC(C)C[C@H](NC(=O)[C@H](Cc1ccc([N+](=O)[O-])cc1)NC(=O)CNC(=O)CNC(=O)[C@@H](N)Cc1ccc(O)cc1)C(=O)N[C@@H](CCCNC(=N)N)C(=O)N[C@H](CCCNC(=N)N)C(N)=O` [KA201], the EC50 on KOP receptor was found to be 1090 nM; on DOP receptor, 2180 nM; at MOP receptor, 1720 nM. Also, the “Selectivity (fold) KOP/DOP” value on DOP receptor and at MOP receptor was 2 fold each time. The half-life in data set [1] stood at 6.4 min.

Regarding `CC(C)C[C@H](NC(=O)[C@H](Cc1ccccc1)NC(=O)CN(C)C(=O)[C@@H](N)Cc1ccc(O)cc1)C(=O)N[C@@H](CCCNC(=N)N)C(=O)N[C@H](CCCNC(=N)N)C(N)=O` [KA203] (H-Y[Sar]FLR[dR]-NH2), the EC50 at KOP receptor was 74.7 nM; at DOP receptor it was above 10000 nM; at MOP receptor, above 10000 nM. Further, the half-life is 13.6 min in data set [1] and 72 min in data set [2].

Take `CC(C)C[C@H](NC(=O)[C@H](Cc1ccc([N+](=O)[O-])cc1)NC(=O)CN(C)C(=O)[C@@H](N)Cc1ccc(O)cc1)C(=O)N(C)[C@@H](CCCNC(=N)N)C(=O)N[C@H](CCCNC(=N)N)C(N)=O` [KA303] (H-Y[Sar][Phe(4-NO2)]L[NMeR][dR]-NH2): the EC50 is 13.5 nM on KOP receptor, 1320 nM on DOP receptor and above 10000 nM at MOP receptor. Also, the “Selectivity (fold) KOP/DOP” value on DOP receptor is 98 fold. The figures for the half-life in data set [1] and in data set [2] were 12.1 min and 168 min, respectively.

Consider `CC(C)C[C@H](NC(=O)[C@H](Cc1ccc(F)cc1)NC(=O)CN(C)C(=O)[C@@H](N)Cc1ccc(O)cc1)C(=O)N(C)[C@@H](CCCNC(=N)N)C(=O)N[C@H](CCCNC(=N)N)C(N)=O` [KA302] (H-Y[Sar][Phe(4-F)]L[NMeR][dR]-NH2), for which the EC50 came to 11.6 nM at KOP receptor, 1660 nM on DOP receptor and 4000 nM on MOP receptor. For the same molecule, the “Selectivity (fold) KOP/DOP” value on DOP receptor was 143 fold; at MOP receptor, 344 fold. Also, in data set [1], the half-life was above 1000 min. Also, in data set [2], the “Stability (t1/2) Plasma” value is listed as 323.9 min.

On to `CC(C)C[C@H](NC(=O)[C@H](Cc1ccc(Cl)cc1)NC(=O)[C@H](C)NC(=O)[C@@H](N)Cc1ccc(O)cc1)C(=O)N[C@@H](CCCNC(=N)N)C(=O)N[C@H](CCCNC(=N)N)C(N)=O` [KA307] (H-YA[Phe(4-Cl)]LR[dR]-NH2), for which the EC50 was 1040 nM at KOP receptor, above 10000 nM on DOP receptor and 1870 nM at MOP receptor. For the same molecule, the “Selectivity (fold) KOP/DOP” value at MOP receptor worked out at 2 fold.

Turning to `CC(C)C[C@H](NC(=O)[C@H](Cc1ccc(Cl)cc1)NC(=O)CN(C)C(=O)[C@@H](N)Cc1ccc(O)cc1)C(=O)N[C@@H](CCCNC(=N)N)C(=O)N[C@H](CCCNC(=N)N)C(N)=O` [KA206] (H-Y[Sar][Phe(4-Cl)]LR[dR]-NH2), the EC50 at KOP receptor was 6.1 nM; on DOP receptor, above 10000 nM; on MOP receptor it was above 10000 nM. For the same molecule, the half-life was found to be 15.9 min in data set [1] and 31.9 min in data set [2].

In the case of `CC(C)C[C@H](NC(=O)[C@H](Cc1ccc([N+](=O)[O-])cc1)NC(=O)CN(C)C(=O)[C@@H](N)Cc1ccc(O)cc1)C(=O)N[C@H](CCCNC(=N)N)C(=O)N[C@@H](CCCNC(=N)N)C(N)=O` [KA205] (H-Y[Sar][Phe(4-NO2)]L[dR]R-NH2), the EC50 at KOP receptor was 1800 nM; at DOP receptor, 3920 nM; on MOP receptor, above 10000 nM. The “Selectivity (fold) KOP/DOP” value on DOP receptor is given as 2 fold. For the same molecule, the half-life in data set [1] was determined as 3260 min; in data set [2], 28.7 min.

For the molecule `CC(C)C[C@H](NC(=O)[C@H](Cc1ccc([N+](=O)[O-])cc1)NC(=O)CN(C)C(=O)[C@@H](N)Cc1ccc(O)cc1)C(=O)N[C@@H](CCCNC(=N)N)C(=O)N[C@H](CCCNC(=N)N)C(=O)NCCCCCCCC(N)=O` [KA314] (H-Y[Sar][Phe(4-NO2)]LR[dR][Aoc]-NH2), the figures for the EC50 at KOP receptor, at DOP receptor and at MOP receptor were 2.49 nM, above 10000 nM and above 10000 nM, respectively. The half-life in data set [1] turned out to be 16.1 min; in data set [2] it was 18.6 min.

Consider `CC(C)C[C@H](NC(=O)[C@H](Cc1ccc(Cl)cc1)NC(=O)CN(C)C(=O)[C@@H](N)Cc1ccc(O)cc1)C(=O)N(C)[C@@H](CCCNC(=N)N)C(=O)N[C@H](CCCNC(=N)N)C(N)=O` [KA301] (H-Y[Sar][Phe(4-Cl)]L[NMeR][dR]-NH2), for which the half-life in data set [2] was 2240 min.

For `CC(C)C[C@H](NC(=O)[C@H](Cc1ccc([N+](=O)[O-])cc1)NC(=O)CNC(=O)CN(C)C(=O)[C@@H](N)Cc1ccc(O)cc1)C(=O)N[C@@H](CCCNC(=N)N)C(=O)N[C@H](CCCNC(=N)N)C(N)=O` [KA202], the EC50 on KOP receptor was 930 nM; on DOP receptor, above 10000 nM; at MOP receptor, above 10000 nM. In addition, in data set [1], the half-life came out at 8.5 min.

As to `CC(C)C[C@H](NC(=O)[C@H](Cc1ccc(F)cc1)NC(=O)CN(C)C(=O)[C@@H](N)Cc1ccc(O)cc1)C(=O)N[C@@H](CCCNC(=N)N)C(=O)N[C@H](CCCNC(=N)N)C(N)=O` [KA207] (H-Y[Sar][Phe(4-F)]LR[dR]-NH2), the EC50 on KOP receptor is 6.7 nM; at DOP receptor, above 10000 nM; at MOP receptor, 3450 nM. In addition, the “Selectivity (fold) KOP/DOP” value at MOP receptor is listed as 515 fold. For the same molecule, the half-life in data set [1] was determined as 7.6 min; in data set [2], 38.2 min.

In the case of `CC(C)C[C@H](NC(=O)[C@H](Cc1ccc([N+](=O)[O-])cc1)NC(=O)CN(C)C(=O)[C@@H](N)Cc1ccc(O)cc1)C(=O)N[C@@H](CCCNC(=N)N)C(=O)N(C)[C@@H](CCCNC(=N)N)C(N)=O` [KA310] (H-Y[Sar][Phe(4-NO2)]LR[NMeR]-NH2), the EC50 at KOP receptor was 1.77 nM; on DOP receptor it was above 10000 nM; at MOP receptor, above 10000 nM. The “selectivity for KOP receptor over MOP receptor and DOP receptor” value on KOP receptor is above 1000 fold. In addition, in data set [1], the half-life is above 1000 min.

Turning to `CC(C)C[C@H](NC(=O)[C@H](Cc1ccc(Cl)cc1)NC(=O)CN(C)C(=O)[C@@H](N)Cc1ccc(O)cc1)C(=O)N[C@@H](CCCNC(=N)N)C(=O)N(C)[C@@H](CCCNC(=N)N)C(N)=O` [KA309] (H-Y[Sar][Phe(4-Cl)]LR[NMeR]-NH2), the figures for the EC50 at KOP receptor, at DOP receptor and on MOP receptor were 3.9 nM, above 10000 nM and above 10000 nM, respectively. The half-life in data set [1] was above 1000 min. In addition, the “Stability (t1/2) Plasma” value in data set [2] was determined as 174.1 min.

Consider `CC(C)C[C@H](NC(=O)[C@H](Cc1ccc(Cl)cc1)NC(=O)CN(C)C(=O)[C@@H](N)Cc1ccc(O)cc1)C(=O)N[C@@H](CCCNC(=N)N)C(=O)N[C@H](CCCNC(=N)N)C(=O)NCCCCCC(N)=O` [KA304] (H-Y[Sar][Phe(4-Cl)]LR[dR][Ahx]-NH2), for which the EC50 at KOP receptor came out at 3.64 nM; at DOP receptor, 1600 nM; at MOP receptor it was 363 nM. For the same molecule, the “Selectivity (fold) KOP/DOP” value on DOP receptor was found to be 440 fold; on MOP receptor, 100 fold. The half-life in data set [1] came out at 8.33 min; in data set [2], 79 min.

`CC(C)C[C@@H](NC(=O)[C@@H](Cc1ccccc1)NC(=O)[C@H](N)Cc1ccccc1)C(=O)N[C@H](CCCCN)C(=O)N1CCC(N)(C(=O)O)CC1` [CR845, reference compound]: the half-life in data set [1] was above 1000 min.

As to `C[C@@H](O)[C@H](NC(=O)[C@H](Cc1ccc(Cl)cc1)NC(=O)CN(C)C(=O)[C@@H](N)Cc1ccc(O)cc1)C(=O)N[C@@H](CCCNC(=N)N)C(=O)N[C@H](CCCNC(=N)N)C(N)=O` [KA308] (H-Y[Sar][Phe(4-Cl)]TR[dR]-NH2), the EC50 on KOP receptor was 230 nM; at DOP receptor, above 10000 nM; on MOP receptor, 5820 nM. In addition, on MOP receptor, the “Selectivity (fold) KOP/DOP” value amounted to 25 fold.
